Where a name gives a salt, the structure may show the parent alone.
How the values were obtained:
[1] = test system: histone H4 Arginine 3 dimethylation mark in TE11 cells; assay: PRMT5 Biomarker Assay; assay type: cell-based; conditions: Homo sapiens, TE-11; TE11 cell line, 72 hours incubation, Di-Methyl Histone H4R3 ELISA corrected for total protein
Description: Compounds of the invention may be tested for potency to inhibit the histone H4 Arginine 3 dimethylation mark in the following assay:
The cell line TE11 was seeded at a density of 12,000 cells per well in 96 well tissue culture plates in DME medium and 10% foetal bovine serum, and allowed to adhere overnight under standard culture conditions (37° C., 5% CO2). […] The methylation level was determined using the EpiQuik™ Global Di-Methyl Histone H4R3 Quantification ELISA Kit (Epigentek, Farmingdale, N.Y.) as per the manufacturer's recommendations; in parallel the total protein amount in the lysate was quantified using a Lowry protein assay.

[2] = biological target: Full-length PRMT5 enzyme (NCBI Reference sequence NP_006100.2) co-expressed with His6-MEP50 (Homo sapiens (Human), UniProt O14744); assay: PRMT5 Biochemical Assay; conditions: histone H4 derived peptide substrate 200 nM, 1 μM S-Adenosyl methionine, 4 hours at 37° C., Transcreener EPIGEN fluorescence polarisation
Description: Compounds of the invention may be tested for in vitro activity in the following assay: A histone H4 derived peptide is used as substrate (amino acid sequence: […]N H2). Full-length PRMT5 enzyme (NCBI Reference sequence NP_006100.2) was co-expressed with His6-MEP50 in insect cells and purified via Nickel immobilized metal affinity and gel filtration chromatography (“the enzyme”).
The 6 μL assay reactions are run in Greiner brand black 384-well low volume plates. All reactions contained assay buffer (phosphate buffered saline, 0.01% (v/v) Tween-20, 0.01% (w/v) albumin from chicken egg white, 1 mM dithiothreitol, 200 nM peptide substrate, 1 μM S-Adenosyl methionine, and 15 ng/reaction enzyme, with the enzyme being omitted from negative control reactions. Compounds were added in a volume of 100 nL from dilution series prepared in DMSO, positive and negative control reactions receiving the same volume DMSO without compound. The plates were sealed with adhesive seals and incubated for 4 hours at 37° C. Reaction progress was measured using the Transcreener™ EPIGEN methyltransferase assay (BellBrook Labs, Madison, Wis.) as recommended by the manufacturer. To each reaction 2 μL detection mix were added, containing coupling enzymes, fluorescence polarisation tracer, and AMP antibody. Plates were incubated for 90 minutes before being read on a PerkinElmer EnVision™ plate reader in fluorescence polarisation mode.

Full-length PRMT5 enzyme (NCBI Reference sequence NP_006100.2) co-expressed with His6-MEP50, sequence (O14744 whole entry): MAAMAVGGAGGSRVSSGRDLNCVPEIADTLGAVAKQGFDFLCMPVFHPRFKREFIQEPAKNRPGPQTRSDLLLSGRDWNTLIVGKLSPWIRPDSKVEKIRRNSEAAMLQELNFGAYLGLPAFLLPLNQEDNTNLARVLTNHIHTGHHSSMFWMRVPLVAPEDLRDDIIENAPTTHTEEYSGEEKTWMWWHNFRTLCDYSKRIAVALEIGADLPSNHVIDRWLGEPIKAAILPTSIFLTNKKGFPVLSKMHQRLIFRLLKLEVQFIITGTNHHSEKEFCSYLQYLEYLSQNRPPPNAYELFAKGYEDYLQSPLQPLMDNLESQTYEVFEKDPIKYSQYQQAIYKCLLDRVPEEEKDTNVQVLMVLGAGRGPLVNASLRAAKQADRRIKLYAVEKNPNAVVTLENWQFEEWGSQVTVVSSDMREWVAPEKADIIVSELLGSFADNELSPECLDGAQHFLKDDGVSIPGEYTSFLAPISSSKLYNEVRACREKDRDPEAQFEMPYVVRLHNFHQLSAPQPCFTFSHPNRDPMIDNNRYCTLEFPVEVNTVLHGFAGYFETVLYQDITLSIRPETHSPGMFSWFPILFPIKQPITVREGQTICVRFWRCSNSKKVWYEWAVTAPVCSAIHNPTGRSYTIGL
Full-length PRMT5 enzyme (NCBI Reference sequence NP_006100.2) co-expressed with His6-MEP50, sequence (Q9BQA1 whole entry partner): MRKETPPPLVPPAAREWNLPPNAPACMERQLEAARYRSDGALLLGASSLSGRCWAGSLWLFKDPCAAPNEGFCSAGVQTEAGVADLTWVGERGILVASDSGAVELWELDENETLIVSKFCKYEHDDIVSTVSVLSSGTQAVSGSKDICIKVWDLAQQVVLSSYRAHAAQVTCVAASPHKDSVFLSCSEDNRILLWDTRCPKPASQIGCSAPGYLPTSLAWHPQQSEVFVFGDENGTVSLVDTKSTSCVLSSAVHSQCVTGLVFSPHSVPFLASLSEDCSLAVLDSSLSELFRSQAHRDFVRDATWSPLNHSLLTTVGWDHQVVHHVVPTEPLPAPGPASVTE

Row | SMILES | IC50 [1] [nM] | IC50 [2] [nM]
1 | c1ccc(OCc2ccc(-c3nc4cc(C5CCNCC5)cnc4[nH]3)cc2)cc1 [Example 9, 2-(4-(phenoxymethyl)phenyl)-6-(piperidin-4-yl)-3H-imidazo[4,5-b]pyridine] | 645 | –
2 | Clc1ccnc2[nH]c(-c3ccc(OCc4ccccc4)cc3)nc12 [Example 4, 2-(4-(benzyloxy)phenyl)-7-chloro-3H-imidazo[4,5-b]pyridine] | 127 | –
3 | c1ccc(COc2ccc(-c3nc4ccc(C5CCNCC5)nc4[nH]3)cc2)cc1 [Example 40, 2-(4-(benzyloxy)phenyl)-5-(piperidin-4-yl)-3H-imidazo[4,5-b]pyridine] | 731 | 223
4 | c1ccc(OCc2ccc(-c3nc4cc(C5CCCNC5)cnc4[nH]3)cc2)cc1 (stereo not drawn) [Example 16, 2-(4-(phenoxymethyl)phenyl)-6-(piperidin-3-yl)-3H-imidazo[4,5-b]pyridine] | 1830 | 107
5 | O=S(=O)(C1CC1)N1CCC(c2ccc3nc(-c4ccc(OCc5ccccc5)cc4)[nH]c3n2)CC1 [Example 89, 2-(4-(benzyloxy)phenyl)-5-(1-(cyclopropylsulfonyl)piperidin-4-yl)-3H-imidazo[4,5-b]pyridine] | – | 1340
6 | c1ccc(OCc2ccc(-c3nc4ccc(C5CCCNC5)nc4[nH]3)cc2)cc1 (stereo not drawn) [Example 35, 2-(4-(phenoxymethyl)phenyl)-5-(piperidin-3-yl)-3H-imidazo[4,5-b]pyridine] | – | 204
7 | CCS(=O)(=O)N1CC=C(c2ccc3nc(-c4ccc(OCc5ccccc5)cc4)[nH]c3n2)CC1 [Example 97, 2-(4-(benzyloxy)phenyl)-5-(1-(ethylsulfonyl)-1,2,3,6-tetrahydropyridin-4-yl)-3H-imidazo[4,5-b]pyridine] | – | 217
8 | CN(C)C(=O)Cc1ccnc2[nH]c(-c3ccc(OCc4ccccc4)cc3)nc12 [Example 94, 2-(2-(4-(benzyloxy)phenyl)-3H-imidazo[4,5-b]pyridin-7-yl)-N,N-dimethylacetamide] | – | 1020
9 | C1=C(c2ccc3nc(-c4ccc(OCc5ccccc5)cc4)[nH]c3n2)CCNC1 [Example 45, 2-(4-(benzyloxy)phenyl)-5-(1,2,3,6-tetrahydropyridin-4-yl)-3H-imidazo[4,5-b]pyridine] | 1210 | –
10 | c1ccc(COc2ccc(-c3nc4ccc(NCC5CCCCN5)nc4[nH]3)cc2)cc1 (stereo not drawn) [Example 51] | – | 547
11 | O=C(O)c1cc(-c2nc3cc(C4CCNCC4)cnc3[nH]2)ccc1OCc1ccccc1 [Example 67, 2-(benzyloxy)-5-(6-(piperidin-4-yl)-3H-imidazo[4,5-b]pyridin-2-yl)benzoic acid dihydrochloride salt] | – | 3720
12 | CC(=O)N1CCC(c2cnc3[nH]c(-c4ccc(COc5ccccc5)cc4)nc3c2)CC1 [Example 10, 1-(4-(2-(4-(phenoxymethyl)phenyl)-3H-imidazo[4,5-b]pyridin-6-yl)piperidin-1-yl)ethanone] | – | 375
13 | CCS(=O)(=O)N1CCN(c2ccc3nc(-c4ccc(OCc5ccccc5)c(-c5ccn[nH]5)c4)[nH]c3n2)CC1 [Example 70] | – | 1110
14 | CCS(=O)(=O)N1CCN(c2ccc3nc(-c4ccc(OCc5ccccc5)c(-c5cnn(C)c5)c4)[nH]c3n2)CC1 [Example 69, 2-(4-(benzyloxy)-3-(1-methyl-1H-pyrazol-4-yl)phenyl)-5-(4-(ethylsulfonyl)piperazin-1-yl)-3H-imidazo[4,5-b]pyridine] | – | 447
15 | CC(C)(C)OC(=O)N1CCC(Nc2ccc3nc(-c4ccc(OCc5ccccc5)cc4)[nH]c3n2)CC1 [Example 32, tert-butyl 4-((2-(4-(benzyloxy)phenyl)-3H-imidazo[4,5-b]pyridin-5-yl)amino)piperidine-1-carboxylate] | – | 827
16 | CN1CCC(c2ccc3nc(-c4ccc(COc5ccccc5)cc4)[nH]c3n2)CC1 [Example 86, 5-(1-methylpiperidin-4-yl)-2-(4-(phenoxymethyl)phenyl)-3H-imidazo[4,5-b]pyridine] | – | 151

Row | SMILES | IC50 [1] [nM] | IC50 [2] [nM]
17 | COC(=O)c1cc(-c2nc3cc(C4CCNCC4)cnc3[nH]2)ccc1OCc1ccccc1 [Example 66, methyl 2-(benzyloxy)-5-(6-(piperidin-4-yl)-3H-imidazo[4,5-b]pyridin-2-yl)benzoate dihydrogen chloride salt] | – | 608
18 | CN(c1ccc2nc(-c3ccc(OCc4ccccc4)cc3)[nH]c2n1)C1CCCN(C(=O)OC(C)(C)C)C1 (stereo not drawn) [Example 30, tert-butyl 3-((2-(4-(benzyloxy)phenyl)-3H-imidazo[4,5-b]pyridin-5-yl)(methyl)amino)piperidine-1-carboxylate] | – | 2660
19 | c1ccc(COc2ccc(-c3nc4ccc(N5CCSCC5)nc4[nH]3)cc2)cc1 [Example 23, 4-(2-(4-(benzyloxy)phenyl)-3H-imidazo[4,5-b]pyridin-5-yl)thiomorpholine] | – | 497
20 | c1ccc(COc2ccc(-c3nc4ccc(C5CC5)nc4[nH]3)cc2)cc1 [Example 105] | – | 1500
21 | CN1CCN(c2ccc3nc(-c4ccc(OCc5ccccc5)cc4)[nH]c3n2)CC1 [Example 26, 2-(4-(benzyloxy)phenyl)-5-(4-methylpiperazin-1-yl)-3H-imidazo[4,5-b]pyridine] | – | 132
22 | CN1CCCC(c2ccc3nc(-c4ccc(COc5ccccc5)cc4)[nH]c3n2)C1 (stereo not drawn) [Example 99, 5-(1-methylpiperidin-3-yl)-2-(4-(phenoxymethyl)phenyl)-3H-imidazo[4,5-b]pyridine] | – | 148
23 | c1ccc(CSc2ccc(-c3nc4ccc(N5CCNCC5)nc4[nH]3)cc2)cc1 [Example 96, 2-(4-(benzylthio)phenyl)-5-(piperazin-1-yl)-3H-imidazo[4,5-b]pyridine] | – | 585
24 | CN(C)c1ccc2nc(-c3ccc(OCc4ccccc4)cc3)[nH]c2n1 [Example 48, 2-(4-(benzyloxy)phenyl)-N,N-dimethyl-3H-imidazo[4,5-b]pyridin-5-amine] | – | 450
25 | O=C(Nc1ccc(-c2nc3cccnc3[nH]2)cc1)c1ccccc1 [Example 3, N-(4-(3H-imidazo[4,5-b]pyridin-2-yl)phenyl)benzamide] | – | 3970
26 | CS(=O)(=O)N1CCC(c2ccc3nc(-c4ccc(OCc5ccccc5)cc4)[nH]c3n2)CC1 [Example 87, 2-(4-(benzyloxy)phenyl)-5-(1-(methylsulfonyl)piperidin-4-yl)-3H-imidazo[4,5-b]pyridine] | – | 355
27 | CC(=O)N1CCC(c2cnc3[nH]c(-c4ccc(OCc5ccccc5)cc4)nc3c2)CC1 [Example 13, 1-(4-(2-(4-(Benzyloxy)phenyl)-3H-imidazo[4,5-b]pyridin-6-yl)piperidin-1-yl)ethanone] | – | 339
28 | O=S1(=O)CCN(c2ccc3nc(-c4ccc(OCc5ccccc5)cc4)[nH]c3n2)CC1 [Example 25, 4-(2-(4-(benzyloxy)phenyl)-3H-imidazo[4,5-b]pyridin-5-yl)thiomorpholine 1,1-dioxide] | – | 619
29 | FC(F)(F)c1ccc(COc2ccc(-c3nc4ccc(N5CCNCC5)nc4[nH]3)cc2)cc1 [Example 56] | – | 1860
30 | CCOC(=O)N1CCC(c2ccc3nc(-c4ccc(OCc5ccccc5)cc4)[nH]c3n2)CC1 [Example 88, ethyl 4-(2-(4-(benzyloxy)phenyl)-3H-imidazo[4,5-b]pyridin-5-yl)piperidine-1-carboxylate] | – | 477
31 | Fc1cc(-c2nc3cc(C4CCNCC4)cnc3[nH]2)ccc1OCc1ccccc1 [Example 65, 2-(4-(benzyloxy)-3-fluorophenyl)-6-(piperidin-4-yl)-3H-imidazo[4,5-b]pyridine] | – | 276

From US9856252B2, “2-(hetero)aryl-benzimidazole and imidazopyridine derivatives as inhibitors of asparagime emethyl transferase” (Cancer Therapeutics CRC Pty Ltd, priority 2013, dated 2018)
